PMC9851200, “Multiparameter phenotypic screening for endogenous TFEB and TFE3 translocation identifies novel chemical series modulating lysosome function” (Autophagy, 2022)

How the values were obtained:
Format in all cases: binding
[1] = biological target: T1, kinases (KINOMEscan panel) (Homo sapiens, UniProt Q92630); conditions: DYRK2; NEW KINOMEscan
T1 sequence (Q92630 1-601): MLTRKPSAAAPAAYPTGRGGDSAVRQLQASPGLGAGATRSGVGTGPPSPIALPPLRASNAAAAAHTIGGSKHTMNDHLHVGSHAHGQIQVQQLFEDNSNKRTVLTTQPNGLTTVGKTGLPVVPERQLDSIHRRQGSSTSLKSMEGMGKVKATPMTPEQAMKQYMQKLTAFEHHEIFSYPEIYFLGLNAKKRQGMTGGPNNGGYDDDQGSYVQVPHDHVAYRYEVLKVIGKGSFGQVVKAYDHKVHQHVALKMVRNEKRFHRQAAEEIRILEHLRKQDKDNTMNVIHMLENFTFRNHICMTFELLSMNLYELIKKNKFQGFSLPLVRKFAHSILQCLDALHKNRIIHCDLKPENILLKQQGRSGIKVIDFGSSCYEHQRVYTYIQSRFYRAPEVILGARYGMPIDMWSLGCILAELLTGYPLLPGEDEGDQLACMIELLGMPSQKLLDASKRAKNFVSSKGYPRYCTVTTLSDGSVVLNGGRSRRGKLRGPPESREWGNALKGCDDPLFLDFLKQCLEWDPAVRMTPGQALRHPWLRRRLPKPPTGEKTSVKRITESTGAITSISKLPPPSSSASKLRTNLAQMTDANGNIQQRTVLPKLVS

[2] = biological target: kinases (KINOMEscan panel) (Homo sapiens, UniProt P06239); conditions: LCK; NEW KINOMEscan
kinases (KINOMEscan panel) (Homo sapiens, UniProt P06239), sequence (P06239 whole entry): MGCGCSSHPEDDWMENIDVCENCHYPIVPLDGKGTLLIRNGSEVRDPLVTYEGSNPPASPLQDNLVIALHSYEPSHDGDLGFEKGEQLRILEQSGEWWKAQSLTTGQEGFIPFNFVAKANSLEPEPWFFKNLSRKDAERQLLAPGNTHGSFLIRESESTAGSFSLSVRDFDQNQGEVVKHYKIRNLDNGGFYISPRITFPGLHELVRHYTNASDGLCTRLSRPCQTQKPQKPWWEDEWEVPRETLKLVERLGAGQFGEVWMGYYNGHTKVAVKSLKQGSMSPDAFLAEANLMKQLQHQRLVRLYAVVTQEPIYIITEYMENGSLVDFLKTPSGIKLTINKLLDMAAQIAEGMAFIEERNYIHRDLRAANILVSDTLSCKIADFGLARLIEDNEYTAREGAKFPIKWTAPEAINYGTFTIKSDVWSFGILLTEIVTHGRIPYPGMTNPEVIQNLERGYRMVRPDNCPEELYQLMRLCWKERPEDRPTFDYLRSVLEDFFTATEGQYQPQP

[3] = biological target: kinases (KINOMEscan panel) (Homo sapiens, UniProt P00519, E255K); conditions: NEW KINOMEscan
[4] = biological target: T2, kinases (KINOMEscan panel) (Homo sapiens, UniProt O75747); conditions: NEW KINOMEscan
T2 sequence (O75747 1-1486): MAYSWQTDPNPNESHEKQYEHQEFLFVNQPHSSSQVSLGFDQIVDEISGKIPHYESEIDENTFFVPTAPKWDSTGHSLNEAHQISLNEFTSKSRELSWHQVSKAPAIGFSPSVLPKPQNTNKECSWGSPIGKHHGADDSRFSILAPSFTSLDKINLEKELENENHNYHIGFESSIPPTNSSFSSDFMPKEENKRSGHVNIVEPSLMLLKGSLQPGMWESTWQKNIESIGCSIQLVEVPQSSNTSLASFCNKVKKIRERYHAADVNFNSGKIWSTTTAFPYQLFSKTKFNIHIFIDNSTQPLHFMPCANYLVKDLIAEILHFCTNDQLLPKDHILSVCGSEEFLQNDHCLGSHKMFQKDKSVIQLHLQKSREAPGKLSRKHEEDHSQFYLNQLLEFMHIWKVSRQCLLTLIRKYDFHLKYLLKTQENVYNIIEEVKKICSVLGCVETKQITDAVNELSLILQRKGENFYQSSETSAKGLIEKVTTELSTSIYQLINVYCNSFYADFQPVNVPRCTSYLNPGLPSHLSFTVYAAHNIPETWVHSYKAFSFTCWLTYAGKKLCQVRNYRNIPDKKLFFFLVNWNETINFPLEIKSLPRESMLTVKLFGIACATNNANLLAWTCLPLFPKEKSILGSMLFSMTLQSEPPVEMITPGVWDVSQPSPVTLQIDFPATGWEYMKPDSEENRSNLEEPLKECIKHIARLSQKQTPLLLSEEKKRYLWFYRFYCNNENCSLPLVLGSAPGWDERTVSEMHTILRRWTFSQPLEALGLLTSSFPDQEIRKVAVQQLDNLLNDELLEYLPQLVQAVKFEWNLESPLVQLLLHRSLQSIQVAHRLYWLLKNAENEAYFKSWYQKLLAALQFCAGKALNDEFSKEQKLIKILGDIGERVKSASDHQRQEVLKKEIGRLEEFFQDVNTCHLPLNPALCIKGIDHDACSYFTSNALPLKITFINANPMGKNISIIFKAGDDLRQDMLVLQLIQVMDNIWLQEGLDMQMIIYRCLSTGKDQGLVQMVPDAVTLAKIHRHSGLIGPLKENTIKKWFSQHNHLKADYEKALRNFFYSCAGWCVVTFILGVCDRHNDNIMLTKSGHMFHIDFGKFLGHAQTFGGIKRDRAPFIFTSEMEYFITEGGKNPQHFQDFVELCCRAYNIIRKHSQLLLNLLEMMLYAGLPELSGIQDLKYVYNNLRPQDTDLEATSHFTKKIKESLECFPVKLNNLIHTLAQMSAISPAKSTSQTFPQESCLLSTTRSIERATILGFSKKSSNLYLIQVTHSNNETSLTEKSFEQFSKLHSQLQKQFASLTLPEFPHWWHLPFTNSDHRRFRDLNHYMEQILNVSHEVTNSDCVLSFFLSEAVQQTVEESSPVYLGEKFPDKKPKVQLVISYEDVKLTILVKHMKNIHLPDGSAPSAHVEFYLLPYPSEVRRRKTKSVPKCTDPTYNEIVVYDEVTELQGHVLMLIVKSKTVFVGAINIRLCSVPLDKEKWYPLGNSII

[5] = biological target: kinases (KINOMEscan panel) (Homo sapiens, UniProt P31749); conditions: kinase AKT1; NEW KINOMEscan
kinases (KINOMEscan panel) (Homo sapiens, UniProt P31749), sequence (P31749 whole entry): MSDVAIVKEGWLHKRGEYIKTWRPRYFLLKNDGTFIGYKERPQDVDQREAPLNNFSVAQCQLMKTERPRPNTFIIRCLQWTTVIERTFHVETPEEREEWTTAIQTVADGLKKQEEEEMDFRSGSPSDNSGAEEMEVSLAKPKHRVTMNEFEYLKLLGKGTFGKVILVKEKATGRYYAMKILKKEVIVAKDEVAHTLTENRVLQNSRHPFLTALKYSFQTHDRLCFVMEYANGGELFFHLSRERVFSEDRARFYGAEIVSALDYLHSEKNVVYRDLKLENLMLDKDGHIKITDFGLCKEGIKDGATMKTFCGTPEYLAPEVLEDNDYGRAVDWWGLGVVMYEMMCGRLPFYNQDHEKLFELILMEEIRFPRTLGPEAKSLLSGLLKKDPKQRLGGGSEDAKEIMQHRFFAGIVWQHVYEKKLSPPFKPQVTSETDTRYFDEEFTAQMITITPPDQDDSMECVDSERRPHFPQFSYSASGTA

[6] = biological target: kinases (KINOMEscan panel) (Homo sapiens, UniProt Q9UM73, L1196M); conditions: kinase ALK(L1196M); NEW KINOMEscan
kinases (KINOMEscan panel) (Homo sapiens, UniProt Q9UM73, L1196M), sequence (Q9UM73 19-1620 L1196M): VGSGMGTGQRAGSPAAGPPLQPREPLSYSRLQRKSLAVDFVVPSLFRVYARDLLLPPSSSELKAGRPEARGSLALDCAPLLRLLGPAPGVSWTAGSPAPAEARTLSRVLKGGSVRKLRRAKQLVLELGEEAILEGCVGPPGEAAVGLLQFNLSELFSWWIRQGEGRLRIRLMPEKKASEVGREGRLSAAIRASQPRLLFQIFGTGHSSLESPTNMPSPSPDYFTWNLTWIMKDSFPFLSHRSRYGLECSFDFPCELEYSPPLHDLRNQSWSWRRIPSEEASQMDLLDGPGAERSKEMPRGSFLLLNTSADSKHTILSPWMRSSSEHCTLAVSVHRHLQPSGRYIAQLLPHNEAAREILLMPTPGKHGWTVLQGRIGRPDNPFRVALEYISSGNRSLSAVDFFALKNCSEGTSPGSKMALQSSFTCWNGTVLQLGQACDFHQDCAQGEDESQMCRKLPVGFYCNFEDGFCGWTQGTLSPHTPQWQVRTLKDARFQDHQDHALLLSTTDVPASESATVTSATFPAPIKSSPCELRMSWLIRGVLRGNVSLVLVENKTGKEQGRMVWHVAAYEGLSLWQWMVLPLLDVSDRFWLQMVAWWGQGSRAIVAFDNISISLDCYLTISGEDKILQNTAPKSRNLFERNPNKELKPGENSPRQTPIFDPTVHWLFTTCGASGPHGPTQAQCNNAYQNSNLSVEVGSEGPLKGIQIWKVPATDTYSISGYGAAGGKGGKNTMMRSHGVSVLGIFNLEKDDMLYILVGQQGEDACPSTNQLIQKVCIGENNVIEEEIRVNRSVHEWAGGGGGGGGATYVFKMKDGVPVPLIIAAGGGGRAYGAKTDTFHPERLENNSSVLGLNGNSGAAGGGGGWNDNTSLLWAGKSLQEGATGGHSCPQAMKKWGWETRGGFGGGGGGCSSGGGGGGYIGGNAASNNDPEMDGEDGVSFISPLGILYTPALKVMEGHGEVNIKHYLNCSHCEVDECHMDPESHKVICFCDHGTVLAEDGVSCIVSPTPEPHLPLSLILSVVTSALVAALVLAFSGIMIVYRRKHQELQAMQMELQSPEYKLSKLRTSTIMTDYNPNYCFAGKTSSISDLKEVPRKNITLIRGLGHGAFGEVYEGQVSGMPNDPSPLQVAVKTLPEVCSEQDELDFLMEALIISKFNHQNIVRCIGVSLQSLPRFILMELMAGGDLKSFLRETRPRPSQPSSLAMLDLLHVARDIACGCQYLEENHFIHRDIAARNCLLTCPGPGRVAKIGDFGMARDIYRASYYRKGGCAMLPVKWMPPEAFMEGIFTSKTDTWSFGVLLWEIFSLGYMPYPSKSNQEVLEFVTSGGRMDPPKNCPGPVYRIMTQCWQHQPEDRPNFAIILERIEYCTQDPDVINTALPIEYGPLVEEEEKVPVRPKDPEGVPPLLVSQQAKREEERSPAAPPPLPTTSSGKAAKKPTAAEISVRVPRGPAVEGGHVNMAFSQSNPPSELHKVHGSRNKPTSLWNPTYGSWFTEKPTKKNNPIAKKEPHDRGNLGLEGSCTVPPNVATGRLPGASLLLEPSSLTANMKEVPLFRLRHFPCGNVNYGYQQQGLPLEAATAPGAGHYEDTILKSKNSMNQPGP

[7] = biological target: kinases (KINOMEscan panel) (Homo sapiens, UniProt P00519, M351T); conditions: kinase ABL1(M351T)-phosphorylated; NEW KINOMEscan
[8] = biological target: kinases (KINOMEscan panel) (Homo sapiens, UniProt P54756); conditions: kinase EPHA5; NEW KINOMEscan
kinases (KINOMEscan panel) (Homo sapiens, UniProt P54756), sequence (P54756 25-1037): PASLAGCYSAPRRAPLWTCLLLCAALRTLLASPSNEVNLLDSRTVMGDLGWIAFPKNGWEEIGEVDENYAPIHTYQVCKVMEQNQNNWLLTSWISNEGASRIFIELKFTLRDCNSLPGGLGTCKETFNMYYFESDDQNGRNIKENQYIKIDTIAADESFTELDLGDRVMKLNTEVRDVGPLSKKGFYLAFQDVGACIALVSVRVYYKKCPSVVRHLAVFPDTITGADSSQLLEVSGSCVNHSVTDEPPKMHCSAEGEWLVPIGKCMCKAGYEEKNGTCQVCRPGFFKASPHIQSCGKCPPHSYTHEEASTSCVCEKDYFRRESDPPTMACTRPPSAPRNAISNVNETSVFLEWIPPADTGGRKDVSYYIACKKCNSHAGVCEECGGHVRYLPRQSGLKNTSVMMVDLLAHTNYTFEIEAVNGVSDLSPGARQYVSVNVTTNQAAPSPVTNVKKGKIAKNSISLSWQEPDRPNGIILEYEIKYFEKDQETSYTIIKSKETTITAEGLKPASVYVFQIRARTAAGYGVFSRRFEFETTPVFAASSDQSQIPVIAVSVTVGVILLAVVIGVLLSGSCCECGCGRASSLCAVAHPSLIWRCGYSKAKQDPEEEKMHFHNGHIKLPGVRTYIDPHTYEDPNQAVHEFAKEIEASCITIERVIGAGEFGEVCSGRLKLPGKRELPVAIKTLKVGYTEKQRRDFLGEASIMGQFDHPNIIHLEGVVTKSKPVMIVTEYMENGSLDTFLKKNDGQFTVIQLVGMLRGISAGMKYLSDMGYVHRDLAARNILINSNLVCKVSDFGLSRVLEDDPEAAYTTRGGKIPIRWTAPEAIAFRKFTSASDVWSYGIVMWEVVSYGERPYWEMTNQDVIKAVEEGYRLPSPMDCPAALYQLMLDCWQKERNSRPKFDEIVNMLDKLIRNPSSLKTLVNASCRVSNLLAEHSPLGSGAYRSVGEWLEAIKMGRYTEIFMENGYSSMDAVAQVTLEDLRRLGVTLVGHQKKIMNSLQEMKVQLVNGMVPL

[9] = biological target: kinases (KINOMEscan panel) (Homo sapiens, UniProt Q9H3Y6); conditions: NEW KINOMEscan
kinases (KINOMEscan panel) (Homo sapiens, UniProt Q9H3Y6), sequence (Q9H3Y6 whole entry): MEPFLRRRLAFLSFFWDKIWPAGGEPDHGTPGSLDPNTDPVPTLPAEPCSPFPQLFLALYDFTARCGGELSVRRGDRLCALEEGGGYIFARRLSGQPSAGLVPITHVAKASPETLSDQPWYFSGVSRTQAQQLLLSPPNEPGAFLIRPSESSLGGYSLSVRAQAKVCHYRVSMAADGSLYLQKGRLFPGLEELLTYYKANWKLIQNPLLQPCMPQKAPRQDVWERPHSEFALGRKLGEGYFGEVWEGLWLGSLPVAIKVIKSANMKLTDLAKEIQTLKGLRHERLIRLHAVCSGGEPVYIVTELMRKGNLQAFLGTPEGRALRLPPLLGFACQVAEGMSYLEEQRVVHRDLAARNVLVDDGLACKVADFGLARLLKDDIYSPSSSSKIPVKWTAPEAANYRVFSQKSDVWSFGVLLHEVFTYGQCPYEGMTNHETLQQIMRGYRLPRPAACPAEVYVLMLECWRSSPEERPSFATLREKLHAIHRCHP

[10] = biological target: kinases (KINOMEscan panel) (Homo sapiens, UniProt O60674); conditions: JAK2(JH1domain-catalytic); NEW KINOMEscan
[11] = biological target: kinases (KINOMEscan panel) (Homo sapiens, UniProt Q2M2I8); conditions: AAK1; NEW KINOMEscan
kinases (KINOMEscan panel) (Homo sapiens, UniProt Q2M2I8), sequence (Q2M2I8 whole entry): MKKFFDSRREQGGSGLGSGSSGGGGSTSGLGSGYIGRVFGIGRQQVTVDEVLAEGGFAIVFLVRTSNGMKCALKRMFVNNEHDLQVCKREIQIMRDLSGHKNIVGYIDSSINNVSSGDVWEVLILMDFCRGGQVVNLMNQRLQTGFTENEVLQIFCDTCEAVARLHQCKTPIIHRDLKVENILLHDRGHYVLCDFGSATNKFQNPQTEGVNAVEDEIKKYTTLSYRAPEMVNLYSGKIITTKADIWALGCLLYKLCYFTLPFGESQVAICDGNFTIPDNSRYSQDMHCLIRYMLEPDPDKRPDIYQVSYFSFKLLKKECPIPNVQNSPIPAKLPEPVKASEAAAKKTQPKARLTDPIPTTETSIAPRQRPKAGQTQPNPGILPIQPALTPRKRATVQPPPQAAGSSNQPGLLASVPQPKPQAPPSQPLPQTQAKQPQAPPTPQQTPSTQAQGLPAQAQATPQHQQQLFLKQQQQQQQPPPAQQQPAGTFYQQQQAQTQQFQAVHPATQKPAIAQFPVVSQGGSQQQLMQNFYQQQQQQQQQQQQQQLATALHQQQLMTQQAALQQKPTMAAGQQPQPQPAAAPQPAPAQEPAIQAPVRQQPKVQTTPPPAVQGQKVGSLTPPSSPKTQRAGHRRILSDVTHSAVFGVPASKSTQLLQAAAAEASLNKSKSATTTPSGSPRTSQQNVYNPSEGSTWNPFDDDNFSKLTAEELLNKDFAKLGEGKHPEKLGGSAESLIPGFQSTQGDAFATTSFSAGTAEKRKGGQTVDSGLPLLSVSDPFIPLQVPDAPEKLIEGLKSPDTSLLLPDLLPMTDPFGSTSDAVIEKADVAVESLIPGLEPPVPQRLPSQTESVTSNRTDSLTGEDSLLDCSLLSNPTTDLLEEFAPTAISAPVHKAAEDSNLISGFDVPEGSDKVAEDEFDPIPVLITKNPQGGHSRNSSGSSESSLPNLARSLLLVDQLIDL

Compound | KINOMEscan DYRK2 [1] | KINOMEscan LCK [2] | KINOMEscan ABL1(E255K)-phosphorylated [3] | KINOMEscan PIK3C2G [4] | KINOMEscan AKT1 [5] | KINOMEscan ALK(L1196M) [6] | KINOMEscan ABL1(M351T)-phosphorylated [7] | KINOMEscan EPHA5 [8] | KINOMEscan SRMS [9] | KINOMEscan JAK2(JH1domain-catalytic) [10] | KINOMEscan AAK1 [11]
Cc1cccc(-c2nc(Nc3ccc4nn(C)cc4c3)c3ccccc3n2)n1 [NK167] | 0 | 0 | 15 | 0 | 10 | 0 | 0 | 0 | 21 | 0 | 1
Cc1cccc(-c2nc(N(C)c3ccc4ncsc4c3)c3ccccc3n2)n1 [NK-161] | 12 | 2 | 22 | 0 | 17 | 0 | 0 | 9 | 26 | 0 | 5
